# Like-named read-outs stand apart in the source and are kept apart here.
# Columns and labels:
# [1] = pharmacokinetic study of GJG-derived compounds in rat plasma (LC-MS/MS); format: in vivo; conditions: for Cmax / Tmax: rat plasma after oral GJG 1.0 g/kg, mean ± S.D.; for time for which the high plasma concentration was maintained: after oral administration of GJG; for time at which maximum plasma concentration (Cmax) was reached: after oral administration of GJG 1.0 g/kg
# Method: Rats cannulated in the jugular vein were fasted for more than 16 hours with access to water. At the time of 0.083, 0.25, 0.5, 1, 2, 4 and 8 hours after oral administration of GJG (1.0 g/10 mL/kg), blood samples were collected with a heparin-coated syringe and centrifuged at 3000 rpm for 15 minutes at 4 °C. The plasma samples were pretreated by precipitating plasma protein with an organic solvent or by solid-phase extraction and injected into the LC-MS/MS system for analysis. Components of GJG in plasma were measured by a QTRAP®5500 system (AB SCIEX, Tokyo, Japan) equipped with an Agilent 1260 HPLC system (binary pump, online degasser, auto plate-sampler and column oven; Agilent Technologies, Tokyo, Japan). The lower limits for quantification were 0.001 ng/mL for benzoylaconine, benzoylmesaconine, benzoylhypaconine; 0.002 ng/mL for 14-anisoylaconine; 0.2 ng/mL for loganin and morroniside; 0.5 ng/mL for paeoniflorin; and 5 ng/mL for catalpol. Cmax and time to reach maximum plasma concentration (Tmax) as pharmacokinetic parameters were calculated based on the plasma concentration of each compound by Phoenix WinNonlin (version 6.3; Certara L.P., St. Louis, MO, USA).
# [2] = system: neuro2A cells; conditions: for oxaliplatin-induced ROS generation: co-administration with oxaliplatin, 100 μM (first screening), 1–100 μM (second screening), 1 h; for oxaliplatin-induced ROS generation, effect of antioxidants: Supplementary Figure S1; for ROS generation in neuro2A cells by metabolites of oxaliplatin: data not shown
# [3] = system: SHSY-5Y cells; design: method as in PMID 21241762, PMID 19379729, PMID 24263411; conditions: cited from earlier work
smiles,measurement,setting,value
"CCN1C[C@]2(COC)[C@H](O)C[C@H](OC)C34C1C([C@H](OC)[C@@H]32)[C@]1(O)[C@@H]2[C@H]4C[C@@](O)([C@@H]2OC(=O)c2ccc(OC)cc2)[C@@H](OC)[C@@H]1O [14-Anisoylaconine, 14-anisoylaconine]",Cmax,[1],0.009 ± 0.000 ng/mL
same,Tmax,[1],18.6 ± 7.8 min
same,oxaliplatin-induced ROS generation,[2],significantly decreased
"CCN1C[C@]2(COC)[C@H](O)C[C@H](OC)[C@@]34[C@@H]5C[C@@]6(O)[C@H](OC(=O)c7ccccc7)[C@@H]5[C@@](O)([C@@H]([C@H](OC)[C@H]23)[C@@H]14)[C@@H](O)[C@@H]6OC [Benzoylaconine, benzoylaconine]",Cmax,[1],0.012 ± 0.002 ng/mL
same,Tmax,[1],30 ± 0 min
"COC[C@@]12CC[C@H](OC)[C@]34C([C@H]([C@H](OC)[C@H]13)[C@]1(O)[C@H]3[C@@H](OC(=O)c5ccccc5)[C@](O)(C[C@H]34)[C@@H](OC)[C@@H]1O)N(C)C2 [Benzoylhypaconine, benzoylhypaconine]",Cmax,[1],0.013 ± 0.001 ng/mL
same,Tmax,[1],30 ± 0 min
"COC[C@]12CN(C)C3[C@@H]4[C@H](OC)[C@H]1[C@@]3([C@@H](OC)C[C@H]2O)[C@@H]1C[C@@]2(O)[C@H](OC(=O)c3ccccc3)[C@@H]1[C@]4(O)[C@@H](O)[C@@H]2OC [Benzoylmesaconine, benzoylmesaconine]",Cmax,[1],0.041 ± 0.006 ng/mL
same,Tmax,[1],26.4 ± 7.8 min
"OC[C@H]1O[C@@H](O[C@@H]2OC=C[C@H]3[C@H](O)[C@@H]4O[C@]4(CO)[C@@H]23)[C@H](O)[C@@H](O)[C@@H]1O [Catalpol, catalpol]",time for which the high plasma concentration was maintained,[1],4 h
same,time at which maximum plasma concentration (Cmax) was reached,[1],60 min
same,Cmax,[1]; read-out: Cmax,282 ± 119 ng/mL
same,Tmax,[1]; read-out: Tmax,60 ± 33 min
"COC(=O)C1=CO[C@@H](O[C@@H]2O[C@H](CO)[C@@H](O)[C@H](O)[C@H]2O)[C@@H]2[C@@H](C)[C@@H](O)C[C@H]12 [Loganin, loganin]",time for which the high plasma concentration was maintained,[1],4 h
same,time at which maximum plasma concentration (Cmax) was reached,[1],30 min
same,Cmax,[1]; read-out: Cmax,43.7 ± 25.7 ng/mL
same,Tmax,[1]; read-out: Tmax,34.8 ± 12 min
same,oxaliplatin-induced ROS generation,[2],significantly decreased
same,ROS production induced by H2O2 or amyloid β 25–35 peptide,[3],attenuate ROS production
"COC(=O)C1=CO[C@@H](O[C@@H]2O[C@H](CO)[C@@H](O)[C@H](O)[C@H]2O)[C@@H]2[C@H](C)O[C@@H](O)C[C@H]12 [Morroniside, morroniside]",time for which the high plasma concentration was maintained,[1],4 h
same,time at which maximum plasma concentration (Cmax) was reached,[1],30 min
same,Cmax,[1]; read-out: Cmax,53.7 ± 26.9 ng/mL
same,Tmax,[1]; read-out: Tmax,40.2 ± 15.6 min
same,rank of anti-ROS action among active components,"[2]; among LO, MO, PF and 14-AA",strongest action
same,oxaliplatin-induced ROS generation,[2],significantly decreased
same,ROS production induced by H2O2 or amyloid β 25–35 peptide,[3],attenuate ROS production
CC(=O)N[C@@H](CS)C(=O)O [N-acetyl cysteine],"oxaliplatin-induced ROS generation, effect of antioxidants",[2],inhibited
"C[C@@]12C[C@@]3(O)O[C@@H](O1)[C@]1(COC(=O)c4ccccc4)[C@H]3C[C@@]12O[C@@H]1O[C@H](CO)[C@@H](O)[C@H](O)[C@H]1O [Paeoniflorin, paeoniflorin]",time at which maximum plasma concentration (Cmax) was reached,[1],30 min
same,Cmax,[1]; read-out: Cmax,9.1 ± 1.2 ng/mL
same,Tmax,[1]; read-out: Tmax,34.8 ± 12 min
same,oxaliplatin-induced ROS generation,[2],significantly decreased
same,ROS production induced by H2O2 or amyloid β 25–35 peptide,[3],attenuate ROS production
"[Cl][Pt+2][Cl].[NH-]C1CCCCC1[NH-] (centres unmarked) [Pt(dach)Cl2, dichloro (1,2-diaminocyclohexane) platinum]",ROS generation in neuro2A cells by metabolites of oxaliplatin,[2],increased ROS generation
N[C@@H](CCC(=O)N[C@@H](CS)C(=O)NCC(=O)O)C(=O)O [glutathione],"oxaliplatin-induced ROS generation, effect of antioxidants",[2],inhibited
O=C(O)C(=O)O [oxalate],ROS generation in neuro2A cells by metabolites of oxaliplatin,[2],did not
